“Also recorded” adds a separate entry of the source.

Data on one substance can be found in patent US20150037341A1, “Diagnostic and Therapeutic Method” (Plysackaridforskning i Uppsala AB, priority 2011, published 2015).

For experiment [1], the system named is TTR transgenic flies (engineered mutant form of human TTR). Briefly: Transgenic Drosophila TTR-model, flies reared on supplemented medium. It counts as in vivo, Drosophila melanogaster. Particulars: medium supplemented 10 mg/ml, heads collected after 9-17 days. The protocol:
(A) Eggs of TTR transgenic flies were cultured on regular medium (control) or medium supplemented with low molecular weight heparin (Klexane®) or heparin. Heads were collected 9-17 days posteclosion and lysed in saline. The extract was analyzed by ThT staining. Values represent the average of duplicate experiments. (B) The presence of heparin in the Drosophila head lysate was analyzed with dot-blot stained Alcian blue. Heparin (25 ng and 50 ng) was used as positive control. Twenty-five microliters of the lysate (same samples as used for ThT analysis) was applied to a nylon membrane (Hybond N+, GE Healthcare) and stained with Alcian blue (0.5% Alcian Blue dissolved in 25% isopropanol and 3% acetic acid).
FIG. 14 illustrates the detection of heparin-TTR co-localization in TTR transgenic flies (A-G) Confocal microscopy analysis of cryo-sections prepared from Drosophila heads. (A) Overview image of a Drosophila head stained with DAPI (blue), showing the brain (Br), optical lobes (OI) and retina (Re). […]
The transgenic Drosophila melanogaster strain (Dhet TTR-A) overexpressing a mutant TTR was generated as described (7). […] The fluorescence was measured as described above. Non-TTR-transgenic flies were used as control to subtract background fluorescence. […]

Experiment [2] addresses T1, dissociated TTR immobilized onto a Biacore sensor chip (Homo sapiens, UniProt P02766).
T1 construct: made in house; host or cells: bacteria
Description: Surface plasmon resonance (Biacore), heparin/HS over immobilized TTR. It counts as binding. On the procedure: (A) Dissociated TTR was immobilized onto a Biacore sensor chip and heparin (10 μM) was allowed to interact with the immobilized TTR in neutral or in mildly acidic conditions. (B) HS II (10 μM) binding to TTR at different pH was monitored and the response for each sample is expressed as response units (RU). […] (C) TTR (50 μM) incubated with heparin or HS II for 7 days at pH 5.0 or pH 7.4 was analyzed by ThT fluorescence. Data represent triplicate experiments (means±SEM).
Dissociated TTR was immobilized onto a Biacore sensor chip. Heparin (A), HS II (B) or HS I (C) were injected in a concentration series (ranging from 0.001-70 μM) over the surface at pH 5.0. The response for each concentration was measured at the steady-state region of the curve. The apparent equilibrium dissociation constant (KD) was calculated by plotting the response at steady-state for each concentration versus heparin/HS concentration. The data were fitted to the equation: Response=(Rmax*C)/(KD+C), where C is the concentration of heparin/HS. Two analyte flow rates (20 and 30 μl/min) were tested to assess possible effects of mass transport limitations in the system. […] The presented values are average value of three independent experiments.
(A) Equal amount of dissociated or native protein was immobilized onto a Biacore sensor chip and HS II was allowed to interact with the immobilized TTR at pH 5.0. (B) The values of the HS II-TTR interaction signal were obtained by repeated experiments using three chips with different ligand densities (250-3000 RU). The signals were normalized to a ligand density of 1000 RU and average value is shown. Statistical analysis was done by t test.
Interaction of TTR with heparin/HS was evaluated using a Biosensor system (Biacore2000). TTR was dissociated in acidic buffer (pH 2.7) and then diluted into a 50 mM NaAc (pH 5.0) coupling buffer and immobilized onto a CM5 sensor chip to a level of 3000 RU using an amine-coupling kit (GE Healthcare, Uppsala, Sweden). For binding and kinetic analysis, heparin or HS was injected (concentrations indicated in figure legend) over the surface and equilibrated at different pH. The surface was regenerated after each sample with a 30 s wash step of 0.5 M NaCl. All obtained sensorgrams were double-reference subtracted in Biacore evaluation software 2.0, using the reference flow cell and buffer blank sample.
(In general: SPR reads the build-up and loss of mass on a sensor chip optically.)

heparin: the “TTR amyloid-like fibril formation in fly head lysate (ThT fluorescence)” value in experiment [1] is reported as “generated ThT-positive amyloid-like fibrils; also recorded: promoted formation of TTR amyloid-like fibrils”. Further, the “Binding to dissociated TTR (SPR response)” value in experiment [2] (pH 5.0 (mildly acidic), 10 μM) is “observed”. In addition, the “Affinity of TTR for heparin relative to HS II” value in experiment [2] (pH 5.0, apparent KD from steady state) is given as 10 fold.
